Reference: US11208412B2 (DAEGU-GYEONGBUK MEDICAL INNOVATION FOUNDATION, priority 2017, dated 2021)

Experiments:
Assay in all cases: Kinase selectivity, DiscoverX scanMAX Kinase assay panel (% control)
Type in all cases: binding
[1] = biological target: T1, kinases of the scanMAX Kinase assay panel (Homo sapiens, UniProt P51817); settings: PRKX; 1 uM
T1 construct: purchased DiscoverX Co. (contract measurement) scanMAX Kinase assay panel
T1 sequence (P51817 1-358): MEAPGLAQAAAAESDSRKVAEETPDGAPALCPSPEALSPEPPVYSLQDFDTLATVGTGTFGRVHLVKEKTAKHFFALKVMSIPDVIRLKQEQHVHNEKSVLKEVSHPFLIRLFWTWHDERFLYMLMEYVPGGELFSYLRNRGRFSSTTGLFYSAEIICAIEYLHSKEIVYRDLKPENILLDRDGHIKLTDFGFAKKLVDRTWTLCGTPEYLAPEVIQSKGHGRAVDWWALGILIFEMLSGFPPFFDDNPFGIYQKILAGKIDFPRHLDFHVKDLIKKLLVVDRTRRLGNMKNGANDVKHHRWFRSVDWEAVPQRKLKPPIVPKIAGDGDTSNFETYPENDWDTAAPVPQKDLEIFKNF
Procedure, shortened: (§1)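 Compounds tested at 1 uM against the scanMAX kinase panel. Signal expressed as % control = (compound − positive control)/(DMSO negative control − positive control) × 100, where positive control = 0% and DMSO = 100%; below 35% counted as activity on that kinase.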

[2] = biological target: T2, kinases of the scanMAX Kinase assay panel (Homo sapiens, UniProt P42685); settings: FRK; 1 uM
T2 construct: purchased DiscoverX Co. (contract measurement) scanMAX Kinase assay panel
T2 sequence (P42685 whole entry): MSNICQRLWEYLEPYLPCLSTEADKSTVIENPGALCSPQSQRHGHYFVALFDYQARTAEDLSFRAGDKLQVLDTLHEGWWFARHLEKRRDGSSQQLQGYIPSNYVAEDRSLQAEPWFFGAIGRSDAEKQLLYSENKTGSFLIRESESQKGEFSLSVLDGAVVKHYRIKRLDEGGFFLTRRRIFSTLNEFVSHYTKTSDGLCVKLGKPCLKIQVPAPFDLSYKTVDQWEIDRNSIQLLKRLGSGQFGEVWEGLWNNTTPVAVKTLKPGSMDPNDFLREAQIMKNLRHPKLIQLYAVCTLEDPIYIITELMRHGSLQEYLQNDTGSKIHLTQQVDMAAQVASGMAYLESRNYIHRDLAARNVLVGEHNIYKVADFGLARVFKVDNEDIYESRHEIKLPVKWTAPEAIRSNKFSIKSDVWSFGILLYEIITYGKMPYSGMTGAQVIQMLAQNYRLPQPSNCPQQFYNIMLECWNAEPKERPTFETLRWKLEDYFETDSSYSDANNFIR
Procedure, shortened: as §1

[3] = biological target: T3, kinases of the scanMAX Kinase assay panel (Homo sapiens, UniProt P07948); settings: LYN; 1 uM
T3 construct: purchased DiscoverX Co. (contract measurement) scanMAX Kinase assay panel
T3 sequence (P07948 whole entry): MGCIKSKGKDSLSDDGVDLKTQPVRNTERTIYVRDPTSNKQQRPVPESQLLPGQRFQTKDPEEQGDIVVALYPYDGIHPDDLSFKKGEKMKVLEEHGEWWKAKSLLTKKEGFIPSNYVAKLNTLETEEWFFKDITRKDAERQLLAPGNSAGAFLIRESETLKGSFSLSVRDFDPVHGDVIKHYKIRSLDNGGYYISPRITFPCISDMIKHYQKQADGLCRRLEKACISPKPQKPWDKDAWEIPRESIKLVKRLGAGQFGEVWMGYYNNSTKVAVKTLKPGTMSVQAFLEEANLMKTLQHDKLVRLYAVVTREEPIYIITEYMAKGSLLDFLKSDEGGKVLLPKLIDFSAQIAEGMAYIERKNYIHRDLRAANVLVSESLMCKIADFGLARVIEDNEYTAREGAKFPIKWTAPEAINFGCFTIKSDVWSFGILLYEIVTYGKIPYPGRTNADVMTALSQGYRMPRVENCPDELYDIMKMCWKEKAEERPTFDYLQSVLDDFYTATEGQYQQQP
Procedure, shortened: as §1

[4] = biological target: T4, kinases of the scanMAX Kinase assay panel (Homo sapiens, UniProt Q9UPZ9); settings: ICK; 1 uM
T4 construct: purchased DiscoverX Co. (contract measurement) scanMAX Kinase assay panel
T4 sequence (Q9UPZ9 1-632): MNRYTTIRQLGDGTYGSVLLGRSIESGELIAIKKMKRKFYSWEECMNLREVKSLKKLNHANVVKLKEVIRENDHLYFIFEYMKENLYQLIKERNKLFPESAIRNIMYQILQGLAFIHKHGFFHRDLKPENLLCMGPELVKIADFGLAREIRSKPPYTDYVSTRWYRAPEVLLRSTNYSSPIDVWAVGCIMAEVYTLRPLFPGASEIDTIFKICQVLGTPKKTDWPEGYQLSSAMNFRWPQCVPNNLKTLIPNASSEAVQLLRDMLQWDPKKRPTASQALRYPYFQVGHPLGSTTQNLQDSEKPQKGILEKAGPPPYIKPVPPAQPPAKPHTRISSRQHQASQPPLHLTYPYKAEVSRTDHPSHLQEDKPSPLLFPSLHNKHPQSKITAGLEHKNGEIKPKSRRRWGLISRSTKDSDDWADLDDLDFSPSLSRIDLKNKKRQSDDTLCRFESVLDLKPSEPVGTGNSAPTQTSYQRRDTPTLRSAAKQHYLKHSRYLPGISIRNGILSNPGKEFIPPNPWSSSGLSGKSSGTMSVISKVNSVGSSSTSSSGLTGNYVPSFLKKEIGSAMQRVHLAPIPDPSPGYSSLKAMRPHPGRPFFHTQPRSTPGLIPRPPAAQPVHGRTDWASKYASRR
Procedure, shortened: as §1

[5] = biological target: T5, kinases of the scanMAX Kinase assay panel (Homo sapiens, UniProt O15530); settings: PDPK1; 1 uM
T5 construct: purchased DiscoverX Co. (contract measurement) scanMAX Kinase assay panel
T5 sequence (O15530 1-556): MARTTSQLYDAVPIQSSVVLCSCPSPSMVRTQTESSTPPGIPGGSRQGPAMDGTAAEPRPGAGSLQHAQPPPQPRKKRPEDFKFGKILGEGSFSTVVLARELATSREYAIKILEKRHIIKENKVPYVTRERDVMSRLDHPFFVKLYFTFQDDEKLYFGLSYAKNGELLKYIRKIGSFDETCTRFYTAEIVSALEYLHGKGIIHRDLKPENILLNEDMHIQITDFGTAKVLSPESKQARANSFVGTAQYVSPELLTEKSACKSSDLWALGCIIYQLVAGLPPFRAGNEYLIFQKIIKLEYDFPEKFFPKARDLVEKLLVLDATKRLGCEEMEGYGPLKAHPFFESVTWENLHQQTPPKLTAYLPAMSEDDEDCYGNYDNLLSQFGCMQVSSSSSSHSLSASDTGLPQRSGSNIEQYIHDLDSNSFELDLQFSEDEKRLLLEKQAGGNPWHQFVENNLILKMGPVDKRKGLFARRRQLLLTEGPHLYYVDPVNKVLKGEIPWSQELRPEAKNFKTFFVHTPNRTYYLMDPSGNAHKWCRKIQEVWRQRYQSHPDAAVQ
Procedure, shortened: as §1

[6] = biological target: T6, kinases of the scanMAX Kinase assay panel (Homo sapiens, UniProt P11309); settings: PIM1; 1 uM
T6 construct: purchased DiscoverX Co. (contract measurement) scanMAX Kinase assay panel
T6 sequence (P11309 whole entry): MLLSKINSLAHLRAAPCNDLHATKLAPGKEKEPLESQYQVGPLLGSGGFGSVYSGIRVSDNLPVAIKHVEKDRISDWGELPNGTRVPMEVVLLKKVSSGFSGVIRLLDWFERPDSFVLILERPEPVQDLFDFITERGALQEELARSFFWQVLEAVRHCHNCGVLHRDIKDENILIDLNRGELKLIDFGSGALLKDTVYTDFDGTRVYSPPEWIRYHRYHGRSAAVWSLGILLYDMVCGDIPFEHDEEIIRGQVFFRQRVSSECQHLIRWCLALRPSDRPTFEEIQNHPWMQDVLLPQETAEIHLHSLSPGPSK
Procedure, shortened: as §1

[7] = biological target: T7, kinases of the scanMAX Kinase assay panel (Homo sapiens, UniProt Q92918); settings: HPK1; 1 uM
T7 construct: purchased DiscoverX Co. (contract measurement) scanMAX Kinase assay panel
T7 sequence (Q92918 whole entry): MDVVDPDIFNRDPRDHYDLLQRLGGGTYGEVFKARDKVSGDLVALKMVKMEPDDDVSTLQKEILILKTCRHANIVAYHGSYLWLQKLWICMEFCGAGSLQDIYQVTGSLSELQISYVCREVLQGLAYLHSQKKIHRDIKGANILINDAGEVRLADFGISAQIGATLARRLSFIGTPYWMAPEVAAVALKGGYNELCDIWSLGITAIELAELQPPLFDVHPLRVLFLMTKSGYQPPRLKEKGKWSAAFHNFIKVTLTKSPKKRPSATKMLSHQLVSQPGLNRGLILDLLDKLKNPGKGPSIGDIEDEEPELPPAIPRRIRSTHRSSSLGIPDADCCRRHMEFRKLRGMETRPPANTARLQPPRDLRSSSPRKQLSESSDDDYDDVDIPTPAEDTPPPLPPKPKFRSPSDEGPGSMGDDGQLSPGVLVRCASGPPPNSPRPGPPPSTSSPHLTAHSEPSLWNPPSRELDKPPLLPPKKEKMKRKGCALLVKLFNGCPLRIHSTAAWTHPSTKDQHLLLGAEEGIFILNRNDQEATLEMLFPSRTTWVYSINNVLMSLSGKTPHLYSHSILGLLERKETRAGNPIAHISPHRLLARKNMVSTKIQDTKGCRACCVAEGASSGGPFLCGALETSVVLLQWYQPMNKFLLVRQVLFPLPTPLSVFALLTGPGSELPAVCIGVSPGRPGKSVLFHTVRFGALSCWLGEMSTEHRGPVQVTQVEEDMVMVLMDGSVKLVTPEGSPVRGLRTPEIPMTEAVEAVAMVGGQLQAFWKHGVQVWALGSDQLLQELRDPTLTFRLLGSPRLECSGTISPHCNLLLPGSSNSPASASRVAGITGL
Procedure, shortened: as §1

[8] = biological target: T8, kinases of the scanMAX Kinase assay panel (Homo sapiens, UniProt Q86UX6); settings: kinase YANK3; 1 uM in DMSO
T8 construct: purchased DiscoverX Co. (contract measurement) scanMAX Kinase assay panel
T8 sequence (Q86UX6 whole entry): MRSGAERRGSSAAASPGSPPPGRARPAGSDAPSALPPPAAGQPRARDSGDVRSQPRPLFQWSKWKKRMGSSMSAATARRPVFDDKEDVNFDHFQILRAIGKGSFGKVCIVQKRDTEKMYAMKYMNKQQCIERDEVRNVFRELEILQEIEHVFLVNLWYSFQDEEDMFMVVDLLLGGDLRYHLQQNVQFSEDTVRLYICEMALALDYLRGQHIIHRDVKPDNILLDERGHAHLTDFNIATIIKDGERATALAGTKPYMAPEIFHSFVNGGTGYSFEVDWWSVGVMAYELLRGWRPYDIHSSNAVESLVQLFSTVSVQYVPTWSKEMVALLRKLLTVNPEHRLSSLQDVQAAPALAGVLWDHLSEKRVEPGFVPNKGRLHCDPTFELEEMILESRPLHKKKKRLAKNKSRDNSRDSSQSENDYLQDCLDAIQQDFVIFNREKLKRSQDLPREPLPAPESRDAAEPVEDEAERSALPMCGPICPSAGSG
Procedure, shortened: as §1

[9] = biological target: T9, kinases of the scanMAX Kinase assay panel (Homo sapiens, UniProt P07332); settings: FES; 1 uM
T9 construct: purchased DiscoverX Co. (contract measurement) scanMAX Kinase assay panel
T9 sequence (P07332 whole entry): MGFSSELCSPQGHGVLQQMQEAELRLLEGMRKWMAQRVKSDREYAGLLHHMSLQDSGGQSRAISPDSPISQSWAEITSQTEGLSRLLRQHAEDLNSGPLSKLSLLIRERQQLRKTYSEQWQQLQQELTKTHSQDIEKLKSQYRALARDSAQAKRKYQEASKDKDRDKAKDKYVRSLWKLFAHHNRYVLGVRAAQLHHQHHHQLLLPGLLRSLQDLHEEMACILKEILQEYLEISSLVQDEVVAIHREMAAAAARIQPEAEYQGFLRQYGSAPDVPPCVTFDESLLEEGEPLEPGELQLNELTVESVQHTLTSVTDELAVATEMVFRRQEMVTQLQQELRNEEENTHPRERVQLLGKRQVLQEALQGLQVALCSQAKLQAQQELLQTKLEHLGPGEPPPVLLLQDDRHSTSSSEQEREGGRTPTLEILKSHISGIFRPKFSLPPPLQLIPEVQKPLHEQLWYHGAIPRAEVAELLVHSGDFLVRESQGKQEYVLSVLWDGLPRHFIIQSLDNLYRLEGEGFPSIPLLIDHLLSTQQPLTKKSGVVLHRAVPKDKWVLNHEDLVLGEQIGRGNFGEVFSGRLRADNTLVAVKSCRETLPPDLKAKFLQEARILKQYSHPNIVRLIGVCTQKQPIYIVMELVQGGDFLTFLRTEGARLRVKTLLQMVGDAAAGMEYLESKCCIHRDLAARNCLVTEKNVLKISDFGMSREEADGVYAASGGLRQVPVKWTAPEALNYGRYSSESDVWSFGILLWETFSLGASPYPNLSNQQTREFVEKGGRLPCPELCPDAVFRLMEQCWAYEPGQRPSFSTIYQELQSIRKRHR
Procedure, shortened: as §1

SMILES	remaining binding at 1 µM [1] [%]	remaining binding at 1 µM [2] [%]	remaining binding at 1 µM [3] [%]	remaining binding at 1 µM [4] [%]	remaining binding at 1 µM [5] [%]	remaining binding at 1 µM [6] [%]	remaining binding at 1 µM [7] [%]	remaining binding at 1 µM [8] [%]	remaining binding at 1 µM [9] [%]
CC1(Nc2nc(Nc3cnn([C@H]4CCN(C5COC5)C[C@@H]4F)c3Cl)nc3[nH]cc(C#N)c23)CC1 [Example 52, 2-((5-chloro-1-((3S,4S)-3-fluoro-1-(oxetane-3-yl)piperidine-4-yl)-1H-pyrazole-4-yl)amino)((1-methylcyclopropyl)amino)-7H-pyrrolo[2,3-d]pyrimidine-5-carbonitrile]	89	49	36	71	70	57	4.3	100	1.3
CNc1nc(Nc2ccc(C(=O)N3CCOCC3)cc2OC)nc2[nH]cc(C#N)c12 [Example 1, 2-((2-methoxy-4-(morpholine-4-carbonyl)phenyl)amino)-4-(methylamino)-7H-pyrrolo[2,3-d]pyrimidine-5-carbonitrile]	82	97	90	73	81	85	79	100	61
CCNc1nc(Nc2ccc(C(=O)N3CCC(N4CCOCC4)CC3)cc2OC)nc2[nH]cc(C(F)(F)F)c12 [Example 104, (4-((4-(ethylamino)-5-(trifluoromethyl)-7H-pyrrolo[2,3-d]pyrimidine-2-yl)amino)-3-methoxyphenyl)(4-morpholinopiperidine-1-yl)methanone]	81	77	100	96	100	80	100	65	36
